Measurements taken from patent US6893830B1, “Method of screening oxysterol activation of LXRα” (The Board of Regents of the University of Texas System, priority 1996, dated 2005).
Like-named read-outs stand apart in the source and are kept apart here. Values belong to the compound of their own block, whether it stands above or below them.

Key:
LXRα = target: T1, LXRα (Homo sapiens, UniProt Q13133); assay: LXRα cotransfection assay with TK-LXREx3-LUC reporter in CV-1 cells; type: cell-based; design: expressed in transfected cells; host or cells: CV-1 monkey kidney cells; settings: for LXRα activity: 10 μM, CV-1 cotransfection assay
T1 sequence (Q13133 1-447): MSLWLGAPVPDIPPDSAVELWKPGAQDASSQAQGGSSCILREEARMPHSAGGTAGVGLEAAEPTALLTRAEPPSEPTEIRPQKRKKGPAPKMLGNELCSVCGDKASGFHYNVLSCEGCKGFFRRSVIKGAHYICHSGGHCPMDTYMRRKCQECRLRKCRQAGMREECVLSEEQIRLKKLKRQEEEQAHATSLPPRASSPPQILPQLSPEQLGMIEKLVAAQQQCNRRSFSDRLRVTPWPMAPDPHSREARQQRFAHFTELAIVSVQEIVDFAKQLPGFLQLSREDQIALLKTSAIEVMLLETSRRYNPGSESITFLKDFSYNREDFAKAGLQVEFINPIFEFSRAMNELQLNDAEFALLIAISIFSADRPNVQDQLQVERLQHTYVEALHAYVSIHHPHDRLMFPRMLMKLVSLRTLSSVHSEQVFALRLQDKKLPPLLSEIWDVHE
T1 sequence (P19793 1-462 partner): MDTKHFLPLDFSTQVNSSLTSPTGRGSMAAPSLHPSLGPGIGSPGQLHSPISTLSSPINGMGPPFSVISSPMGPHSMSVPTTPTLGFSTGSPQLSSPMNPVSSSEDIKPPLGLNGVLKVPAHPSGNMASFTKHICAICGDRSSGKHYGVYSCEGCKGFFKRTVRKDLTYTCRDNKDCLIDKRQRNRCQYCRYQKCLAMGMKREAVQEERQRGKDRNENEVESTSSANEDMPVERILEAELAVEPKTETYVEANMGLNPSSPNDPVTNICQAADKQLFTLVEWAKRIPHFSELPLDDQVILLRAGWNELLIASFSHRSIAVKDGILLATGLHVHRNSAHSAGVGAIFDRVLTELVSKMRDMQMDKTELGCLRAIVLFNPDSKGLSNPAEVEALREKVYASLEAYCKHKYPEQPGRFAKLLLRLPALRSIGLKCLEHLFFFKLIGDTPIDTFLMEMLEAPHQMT
Method: FIG. 1 Human LXRα is activated by gonad sterols. (A) Transactivation of LXRα ligand binding domain (LBD) with testis extract. CV-1 cells were cotransfected with a GAL4 responsive luciferase reporter plasmid and an expression plasmid encoding no receptor or a chimeric receptor composed of the GAL4 DNA binding domain fused to the LXRα ligand binding domain (LBD) (GAL4-LXRα)^3. After transfection, cells were treated with ethanol (ETOH) or 1% of the concentrated testis extract. (B) Transactivation of LXRα with follicular fluid meiosis activating substance (FF-MAS). CV-1 cells were cotransfected with an LXRα responsive reporter plasmid and the receptor expression plasmids for LXRα alone or with RXRα. After transfection, cells were treated with ETOH or […] FF-MAS.
FIG. 2 LXRα is activated by a specific subset of oxysterols. (A) Specificity of LXRα activators. Shown is a representative group from 70 compounds evaluated for LXRα activity (10 μM) in cotransfection assays as described in FIG. 1B. […] (B) The the structure-activity relationship of LXRα activators. Data compiled from FIG. 2A and other experiments (not shown) reveal that the position of the hydroxyl on the cholesterol backbone is a determinant of LXRα activity. […] Dose response curves for LXRα activators were generated in CV-1 cell cotransfection assays as described in FIG. 1B.
Organic extraction of breeding bull testis was performed as described^6. Briefly, 12 grams of lyophilized testis was extracted with N-heptane and lipids were concentrated by roto-evaporation. Aliquots representing 1% of this material were assayed. FF-MAS was synthesized as described^18. Transient transfections in CV-1 monkey kidney cells were performed in triplicate in 48-well plates as described^3 with media containing 5% cabosil-treated calf bovine serum.
Transfections were performed in FIG. 1A using 80 ng of TK-MH100x4-LUC reporter and 30 ng of CMX-GAL4-hLXRα expression plasmids per well; and in FIG. 1B using 50 ng of TK-LXREx3-LUC reporter and 25 ng of CMX-hLXRa alone or with 25 ng CMX-hRXRa expression plasmids per well. Candidate ligands were dissolved in ethanol and added 8 hours post-transfection. As an internal standard, 50 ng of CMX-β gal was included in all transfections. All plasmid constructs and determinations of luciferase and β-galactosidase activities have been described^3. To construct CMX-LXRα, the hLXRα cDNA insert was excised from the plasmid pXR2DRV (Willy, et al., 1995, Genes Dev. 9: 1033-1045) with Kpnl and BamHI and was ligated into the expression vector CMX. CMX-βgal was constructed by ligating the β-galactosidase gene into the expression vector CMX. Chimeric Gal4-receptor expression plasmid (CMX-GAL4-LXRα) was constructed by first ligating the GAL4 portion of pSC424 (Sadowski, I. and M. Ptashne, 1989, Nucleic Acids Res. 19: 7539-7530) into the HindIII/SacI sites of pCMX (Umesono, et al., 1991, Cell 65: 1255-1266) to create pCMX-GAL4. This vector contains the CMV promoter fused to the coding sequence for GAL4 (1-147), followed by inframe polylinker cloning sites and translational stop codons. The cDNAs encoding the ligand-binding domain (LBD) of hLXRα (amino acids 166-447) was then ligated into the polylinker to create CMX-GAL4-LXRα.
Reporter plasmids for these studies were constructed by ligating the appropriate oligonucleotides into the HindIII site of the TK-LUC vector to create TK-LXREx3-LUC, TK-MH100x4-LUC (Kang, T., et al., 1993, J. Biol Chem. 268: 9629-9635). The sense strand of the LXRE oligonucleotide used to construct the reporter plasmid TK-LXREx3-LUC was 5′agctt[…]3′ (SEQ. ID. NO. 1). All constructs were verified by sequencing. Data are presented as relative light units (RLUs) and represent the mean of triplicate assays±standard error. […]

LXRα protein = target: T2, LXRα protein (Homo sapiens, UniProt Q13133); assay: Limited protease protection assay (chymotrypsin) of [35S]-labelled Flag-LXRα; type: binding; settings: increasing concentrations of chymotrypsin, SDS-PAGE and autoradiography
T2 construct: made in house; host or cells: in vitro synthesis (cell-free translation)
T2 sequence (Q13133 1-447): T1 sequence (Q13133 1-447)
Method: FIG. 4, Protease protection of LXRα with 22(R)-hydroxycholesterol. [^35S]-labelled LXRα protein was incubated with (A) ethanol (ETOH) control or (B) 22(R)-hydroxycholesterol, subjected to protease digestion with increasing amounts of chymotrypsin, and analyzed by SDS-PAGE and autoradiography.
In vitro synthesized [^35S]-labelled Flag-LXRα protein was subjected to protease digestion with α-chymotrysin. For these studies, LXRα with a Flag epitope fused to the amino terminus was used.
The unavailability of radiolabelled LXRα activators prevents direct ligand binding analysis. To address the possibility that 22(R)-hydroxycholesterol interacts with LXRα, a limited protease protection assay was performed (FIG. 4). In this experiment, several proteolytic fragments were generated when LXRα protein was incubated with increasing concentrations of the protease, chymotrypsin. […] The presence of a specific ligand-protected ˜30 kDa fragment has also been observed during similar analyses with other nuclear receptors. Thus, these protease protection studies support the finding that 22(R)-hydroxycholesterol interacts with LXRα.

RXR/LXR heterodimer = RXR/LXR heterodimer activation, dose response in CV-1 cells with TK-LXREx3-LUC; type: cell-based, human; settings: LXRα expression plasmid, dose-dependent
Method: TK-DR-4-LUC; human vitamin D receptor (VDR)^24, TK-DR^3-LUC; human peroxisome proliferator-activated receptor-α (PPARα)^25, TK-PPREx3-LUC; human farnesol activated receptor (FXR)^11, ΔMTV-EcREx5-LUC; human estrogen receptor (ER)^26, ΔMTV-ERE-LUC; human glucocorticoid receptor (GR)^27, MTV-LUC; Drosophila ecdysone receptor (usp/EcR)^15, ΔMTV-EcREx5-LUC. Cells were treated with ETOH or 6 μM 22(R)-hydroxycholesterol. […] FIG. 3(A)-3(D) Activation of LXRα by 22(R)-hydroxycholesterol in Drosophila (SL-2) cells. […] CV-1 cells were cotransfected with TK-LXREx3-LUC reporter plasmid and expression plasmids containing the indicated receptor combinations, and then treated with the indicated ligands. […] CV-1 cells cotransfected with the LXRα expression plasmid and TK-LXREx3-LUC reporter were treated with 9-cis RA, 22(R)-hydroxycholesterol, or both, at the indicated concentrations.
In FIG. 3B. Drosophila SL-2 cells were transfected and assayed as previously described^5 in 6-well plates with […] A5C-hLXRα or A5C-hLXRα, 0.5 mg ADH-LXREx2-LUC, 0.2 mg A5C-βGAL and […] PGEM4 carrier DNA per well.
A subset of receptors that function as RXR heterodimers have the unique ability to be activated by their own ligand, the RXR ligand (i.e., 9-cis retinoic acid), or both ligands together^11,17. […]

[1] = CV-1 cell cotransfection, dose response curves, read-out: EC50 for LXRα activators

SMILES: CC(C)CCC[C@@H](C)[C@H]1CC[C@H]2[C@@H]3[C@@H](O)C=C4C[C@@H](O)CC[C@]4(C)[C@H]3CC[C@]12C [7β-hydroxycholesterol]
EC50 (LXRα; [1]): 3.5 µM

SMILES: CC(C)CCC[C@](C)(O)[C@H]1CC[C@H]2[C@@H]3CC=C4C[C@@H](O)CC[C@]4(C)[C@H]3CC[C@@]21C [20(S)-hydroxycholesterol]
EC50 (LXRα; [1]): 1.6 µM

SMILES: CC(C)CC[C@H](O)[C@@H](C)[C@H]1CC[C@H]2[C@@H]3CC=C4C[C@@H](O)CC[C@]4(C)[C@H]3CC[C@]12C [22(S)-hydroxycholesterol]
LXRα activity (LXRα): completely inactive

SMILES: CC(C)C(O)CC[C@@H](C)[C@H]1CC[C@H]2[C@@H]3CC=C4C[C@@H](O)CC[C@]4(C)[C@H]3CC[C@]12C (some centres unmarked) [24-hydroxycholesterol]
EC50 (LXRα): 1.6 µM

The next lines start with results.

ligand-protected 30 kDa chymotrypsin fragment of LXRα (LXRα protein): not
SMILES: CC1=C(/C=C/C(C)=C\C=C\C(C)=C\C(=O)O)C(C)(C)CCC1 [9-cis retinoic acid, reference compound]
maximal induction (RXR/LXR heterodimer): 7 fold

EC50 (LXRα; [1]): 3.5 µM
SMILES: C[C@H](CCCC(C)(C)O)[C@H]1CC[C@H]2[C@@H]3CC=C4C[C@@H](O)CC[C@]4(C)[C@H]3CC[C@]12C [25-hydroxycholesterol]

EC50 (LXRα; [1]): 3.5 µM | induction of transcription by LXRα (LXRα; CV-1 cells, wild-type LXRα, TK-LXREx3-LUC, 50 mM FF-MAS vs ETOH): 5-6 fold
SMILES: CC(C)=CCC[C@@H](C)[C@H]1CC=C2C3=C(CC[C@@]21C)[C@@]1(C)CC[C@H](O)C(C)(C)[C@@H]1CC3 [FF-MAS]

ligand-protected 30 kDa chymotrypsin fragment of LXRα (LXRα protein): not
SMILES: CC(C)CCC[C@@H](C)[C@H]1CC[C@H]2[C@@H]3CC=C4C[C@@H](O)CC[C@]4(C)[C@H]3CC[C@]12C [cholesterol]

LXRα activity (LXRα): no LXRα activity
SMILES: CC(C)=CCCC(C)=CCCC(C)=CCO [farnesol, reference compound]
